Assay results: the supplement of paper PMC8253809

Assays:
HGGX6 [1] = H3.3 G34R paediatric high-grade glioma line; experiment: area under dose-response curve of % growth inhibition (log2 RLU vs DMSO / staurosporine), 1e-11 to 1e-4 M (% x log10 M); higher = more growth inhibition
Method in brief: (§1)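 Patient-derived pHGG/DIPG cell lines and astrocytes were plated in 384-well plates coated with 1% Geltrex and treated in triplicate with a 10-point threefold dilution series whose mean top concentration was 35 μM, for 7 days (3 days for iAstro) at 37 °C and 5% CO2. CellTiter-Glo luminescence was log2-transformed and scaled on each plate to % activity between solvent and positive controls. Area under the curve came from the trapezoid rule applied to a fitted log-logistic curve, or to a smoothing spline where the sigmoid fit failed.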

DIPGX37 [2] = H3.3 K27M diffuse intrinsic pontine glioma line; experiment: as above
Method in brief: as §1

SUDIPGXVII [3] = diffuse intrinsic pontine glioma line; experiment: as above
Method in brief: as §1

HGGX39 [4] = paediatric high-grade glioma line; experiment: as above
Method in brief: as §1

SUDIPGXIX [5] = diffuse intrinsic pontine glioma line; experiment: as above
Method in brief: as §1

DIPGX7 [6] = H3.3 K27M diffuse intrinsic pontine glioma line; experiment: as above
Method in brief: as §1

SUDIPGXXI = diffuse intrinsic pontine glioma line; experiment: as above
Method in brief: as §1

SUDIPGXIII [7] = diffuse intrinsic pontine glioma line; experiment: as above
Method in brief: as §1

HGGX2 = paediatric high-grade glioma line; experiment: as above
Method in brief: as §1

SUDIPGIV [8] = diffuse intrinsic pontine glioma line; experiment: as above
Method in brief: as §1

HGGX42 = H3.3 G34R paediatric high-grade glioma line; experiment: as above
Method in brief: as §1

DIPGX29 [9] = H3.3 K27M diffuse intrinsic pontine glioma line; experiment: as above
Method in brief: as §1

SUDIPGVI [10] = diffuse intrinsic pontine glioma line; experiment: as above
Method in brief: as §1

DIPGX9 [11] = diffuse intrinsic pontine glioma line; experiment: as above
Method in brief: as §1

HABS [12] = astrocyte control; experiment: as above
Method in brief: as §1

iAstro = astrocyte control; experiment: as above
Method in brief: as §1

HGGX6 [13] = experiment: EC50 (inflection of fitted growth-inhibition curve) (log10 M)
Method in brief: (§2)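 Treatment used a pin tool and a 10-point threefold dilution series, mean top concentration 35 μM, run in triplicate on patient-derived pHGG/DIPG cell lines and astrocyte controls in 1% Geltrex-coated 384-well plates. Plates were kept at 37 °C, 5% CO2 for 7 days (iAstro: 3 days). Log2-transformed CellTiter-Glo luminescence was scaled per plate to % activity between negative (solvent) and positive control wells and pooled before fitting. EC50 and maximal response (yFin) came from the three- or four-parameter log-logistic fit chosen by lowest AICc.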

DIPGX37 [14] = experiment: as above
Method in brief: as §2

SUDIPGXVII [15] = experiment: as above
Method in brief: as §2

HGGX39 [16] = experiment: as above
Method in brief: as §2

SUDIPGXIX [17] = experiment: as above
Method in brief: as §2

DIPGX7 [18] = experiment: as above
Method in brief: as §2

SUDIPGXIII [19] = experiment: as above
Method in brief: as §2

SUDIPGIV [20] = experiment: as above
Method in brief: as §2

DIPGX29 [21] = experiment: as above
Method in brief: as §2

SUDIPGVI [22] = experiment: as above
Method in brief: as §2

DIPGX9 [23] = experiment: as above
Method in brief: as §2

HABS [24] = experiment: as above
Method in brief: as §2

HGGX6 [25] = experiment: maximal growth inhibition (yFin) relative to DMSO / staurosporine; higher = more efficacious
Method in brief: as §2

DIPGX37 [26] = experiment: as above
Method in brief: as §2

SUDIPGXVII [27] = experiment: as above
Method in brief: as §2

HGGX39 [28] = experiment: as above
Method in brief: as §2

SUDIPGXIX [29] = experiment: as above
Method in brief: as §2

DIPGX7 [30] = experiment: as above
Method in brief: as §2

SUDIPGXIII [31] = experiment: as above
Method in brief: as §2

SUDIPGIV [32] = experiment: as above
Method in brief: as §2

DIPGX29 [33] = experiment: as above
Method in brief: as §2

SUDIPGVI [34] = experiment: as above
Method in brief: as §2

DIPGX9 [35] = experiment: as above
Method in brief: as §2

HABS [36] = experiment: as above
Method in brief: as §2

Structure (SMILES): CC(C)c1cc(-c2n[nH]c(=O)n2-c2ccc3c(ccn3C)c2)c(O)cc1O [GANETESPIB]
- area under dose-response curve (HGGX6 [1]): 153
- area under dose-response curve (DIPGX37 [2]): 306
- area under dose-response curve (SUDIPGXVII [3]): 242
- area under dose-response curve (HGGX39 [4]): 271
- area under dose-response curve (SUDIPGXIX [5]): 395
- area under dose-response curve (DIPGX7 [6]): 106
- area under dose-response curve (SUDIPGXXI): 432
- area under dose-response curve (SUDIPGXIII [7]): 215
- area under dose-response curve (HGGX2): 257
- area under dose-response curve (SUDIPGIV [8]): 238
- area under dose-response curve (HGGX42): 226
- area under dose-response curve (DIPGX29 [9]): 195
- area under dose-response curve (SUDIPGVI [10]): 158
- area under dose-response curve (DIPGX9 [11]): 440
- area under dose-response curve (HABS [12]): 329
- area under dose-response curve (iAstro): 164
- EC50 (log10 M) (HGGX6 [13]): -7.85
- EC50 (log10 M) (DIPGX37 [14]): -7.76
- EC50 (log10 M) (SUDIPGXVII [15]): -7.92
- EC50 (log10 M) (HGGX39 [16]): -7.51
- EC50 (log10 M) (SUDIPGXIX [17]): -8.72
- EC50 (log10 M) (DIPGX7 [18]): -6.1
- EC50 (log10 M) (SUDIPGXIII [19]): -7.84
- EC50 (log10 M) (SUDIPGIV [20]): -8.08
- EC50 (log10 M) (DIPGX29 [21]): -7.76
- EC50 (log10 M) (SUDIPGVI [22]): -7.86
- EC50 (log10 M) (DIPGX9 [23]): -7.98
- EC50 (log10 M) (HABS [24]): -7.9
- maximal growth inhibition (HGGX6 [25]): 39.8%
- maximal growth inhibition (DIPGX37 [26]): 81.5%
- maximal growth inhibition (SUDIPGXVII [27]): 61.6%
- maximal growth inhibition (HGGX39 [28]): 77.3%
- maximal growth inhibition (SUDIPGXIX [29]): 87.3%
- maximal growth inhibition (DIPGX7 [30]): 44.1%
- maximal growth inhibition (SUDIPGXIII [31]): 56%
- maximal growth inhibition (SUDIPGIV [32]): 58.4%
- maximal growth inhibition (DIPGX29 [33]): 51.8%
- maximal growth inhibition (SUDIPGVI [34]): 41.2%
- maximal growth inhibition (DIPGX9 [35]): 114%
- maximal growth inhibition (HABS [36]): 84.5%
